Patent US12290533B2, “Extracellular vesicles and methods of using” (NUtech Ventures, priority 2018, dated 2025)
“Also recorded” adds a separate entry of the source.

Columns and labels:
[1] = Bovine milk exosomes and miRNAs in embryos and placentas of pregnant mice at E16.5; type: in vivo
Source text: The bioavailability of bovine milk exosomes and miRNAs in fetal circulation of pregnant mice was examined. DiR-labelled bovine milk exosomes (or unlabeled control bovine milk exosomes) were adminstered to pregnant mice at embryonic day 16.5 (E16.5) to embryos and placentas. […] Three independent experiments per each treatment and control.

[2] = system: human umbilical vein endothelial cells (HUVEC); test: Uptake of fluorophore-labeled cow's milk exosomes into HUVECs; type: cell-based
[3] = system: rat small intestinal IEC-6 cells; test: Uptake of FM 4-64-labeled bovine milk exosomes into IEC-6 cells; type: cell-based; conditions: exosomes treated with 0.105 mMol/L trypsin for 30 mins
[4] = mouse, in vivo
Experimental: Exosomes were isolated from bovine milk using ultracentrifugation. Exosome membranes were labeled using the fluorophore, DiR, as described elsewhere herein. […] Identity, integrity, fine dispersion, and count of exosomes were assessed using transmission electron microscopy, western blots, and nanoparticle tracker (not shown). Exosomes were administered orally by gavage (1×10^12 exosomes/g) in BALB/c mice. Absorption and distribution of exosomes and their cargos was monitored at timed intervals for up to 24 h using an iBox® Small Animal Imaging system and LiCor Odyssey CLx. At timed intervals, mice were euthanized and various tissues were excised and collected for densitometry analysis using VisionWorks®LS and Image Studio software.
Studies were conducted in female Balb/c mice (Jackson Laboratory, stock number 000651), ages 8 to 20 weeks, unless noted otherwise.
Exosomes were labeled with the lipophilic fluorophore 1,1-dioctadecyl-3,3,3,3-tetrametylindotricarbocyanine iodide (DiR) as described elsewhere (see, e.g., Wiklander et al., J. Extracell. Vesicles 4:26316 (2015)). […] Free dyes and extra-exosomal synthetic microRNAs were removed by two PBS washes (120,000×g for 60 minutes), and 1×10^12 exosomes were administered per g body weight in a volume of less than 150 μl. […] All exosome preparations were utilized within 2 hours.

[5] = system: human colon carcinoma Caco-2 cells; test: Uptake of FM 4-64-labeled bovine milk exosomes into Caco-2 cells; conditions: for effect on exosome transport: milk exosomes treated with protease
Experimental: Exosomes were isolated from bovine milk by differential centrifugation and authenticated as recommended by International Society for Extracellular Vesicles. […] Controls were incubated with solvent. Exosomes were labeled with FM4-64, and unlabeled fluorophore was removed. […] Transport kinetics were modelled using the Michaelis-Menten equation. One-way ANOVA and Bonferroni's multiple comparison were used for statistical analyses.
Caco-2 cells and IEC-6 cells were seeded at a density of 20,000 and 7000 cells/well, respectively, in 96-well plates, and allowed to adhere for 48 h, when cells were 75% confluent. The exosomes were labeled with the fluorophore, FM 4-64 (Molecular Probes). One microliter of a stock solution of FM 4-64 (5.9 mmol/L) was added to 1 mL of exosome suspension and incubated for 15 min at 37° C., and excess FM 4-64 was removed by ultracentrifugation at 120,000 3 g at 4° C. for 90 min. Transport studies were conducted using FM4-64-labeled exosomes using 3-110 mg of exosomal protein/well (Caco-2 cells) or 27-652 mg of exosomal protein/well (IEC-6 cells) and incubating cells for various periods of time to assess saturation kinetics; blanks were created using solvent. Assays were calibrated by quantifying the fluorescence of a known mass of exosomes labeled with FM 4-64. Exosome uptake was analyzed by measuring the cell fluorescence at 515 (excitation) and 640 nm (emission) using a Biotek FLx800 plate reader (BioTek Instru-ments). Fluorescence readings were corrected for cell autofluorescence by subtracting signals measured in cells incubated with exosome-depleted media. Transport kinetics was modeled using the Michaelis-Menten equation and nonlinear regression; modeling was conducted using GraphPad Prism 6.0 (GraphPad Software). […] Subsequent transport studies were conducted using incubation times of 8 hours for Caco-2 cells (FIG. 34B).
Transport kinetics was modeled using the Michaelis-Menten equation.

[6] = Bioavailability and distribution of fluorophore-labeled RNA and microRNA cargos in bovine milk exosomes; type: in vivo, Balb/c mice; conditions: for tissue distribution of fluorophore-labeled microRNA transfected into milk exosomes: oral gavage, 6 hours
Experimental: Exosomes were isolated from bovine milk using ultracentrifugation.
Labeling of exosomes and RNAs with synthetic fluorophores. […] All exosome preparations were utilized within 2 hours.

miR-30d: microRNA loaded into bovine milk exosomes; uguaaacauccccgacuggaagcu, SEQ ID NO: 13 (UGUAAACAUCCCCGACUGGAAGCU; listed as RNA, further chemistry not given here)
presence in embryo and placenta [1]: present in both embryo and placenta

C=C1[C@@H](C)[C@H]2[C@H](Cc3ccccc3)NC(=O)[C@]23[C@H](OC(C)=O)/C=C/[C@@](C)(O)C(=O)[C@@H](C)C/C=C/[C@H]3[C@@H]1O [cytochalasin D]
decrease of transport rates compared with controls ([2]; exosomes treated with proteinase K, or transport in presence of D-galactose, excess unlabeled exosomes or cytochalasin D): 50%

trypsin
exosome uptake [3]: 82%+8%
tissue accumulation of exosomes depleted of surface proteins [4]: reduced accumulation of exosomes in the liver and lungs after intravenous injection
transport rates (Vmax) ([5]; exosomes treated with protease, control 88±1, cell type not named at the place): 40±0.6 arbitrary units
effect on exosome transport [5]: significant decrease in exosome transport into CaCo-2 cells

MiR-34a: synthetic IRDye-labeled microRNA transfected into bovine milk exosomes; uggcagugucuuagcugguugu, SEQ ID NO: 8 (UGGCAGUGUCUUAGCUGGUUGU; IRDye fluorophore label, position not given here, synthetic)
tissue distribution of fluorophore-labeled microRNA transfected into milk exosomes [6]: brain

miR-320a: synthetic IRDye-labeled microRNA transfected into bovine milk exosomes; aaaagcuggguugagagggcga, SEQ ID NO: 10 (AAAAGCUGGGUUGAGAGGGCGA; IRDye fluorophore label, position not given here, synthetic)
tissue distribution of IRDye-labeled microRNA transfected into milk exosomes ([6]; 3 hours after intravenous injection): accumulated primarily in liver with small amounts being detectable in kidneys, lungs and spleen 3 hours after intravenous injection
apparent bioavailability ([6]; hepatic densitometry 3 hours after intravenous injection vs 6 hours after oral gavage): 25.4±8.7%
tissue distribution of fluorophore-labeled microRNA transfected into milk exosomes [6]: accumulated primarily in liver, spleen and kidneys 6 hours after oral gavage

miR-375: synthetic 5ATT0633N-labeled microRNA, with or without quencher 3IAbRQSp, transfected into milk exosomes; uuuuguucguucggcucgcguga, SEQ ID NO: 11 (UUUUGUUCGUUCGGCUCGCGUGA; listed as RNA, further chemistry not given here)
signal of microRNA conjugated to fluorophore and quencher ([6]; administered orally, signal indicates degradation): only a minimal signal was detected in heart and spleen
tissue distribution of fluorophore-labeled microRNA transfected into milk exosomes [6]: the signal localized primarily to the intestines, with minor signal being detectable in kidneys, brain and liver; also recorded: accumulated in brain, liver, kidneys and intestinal mucosa in mice

O=C[C@H](O)[C@@H](O)[C@@H](O)[C@H](O)CO [D-galactose]
effect of carbohydrate competitor on exosome uptake ([2]; 150 mmol/L, pretreated 30 min): caused a significant decrease in exosome uptake

Glu-C: serine protease cleaving at glutamic acid and aspartic acid residues
effect on exosome transport [5]: significant decrease in exosome transport into CaCo-2 cells
